How the values were obtained:
Assay in all cases: relative viability (nuclei count vs DMSO), 5 days (fraction); higher = more cells survive
[1] = compound: C=CC(=O)Nc1cc(-n2c(=O)ccc3cnc4ccc(-c5ccc(NS(C)(=O)=O)cc5)cc4c32)ccc1C [BMX-IN-1] + C[C@@H](Oc1cc(-c2cnn(C3CCNCC3)c2)cnc1N)c1c(Cl)ccc(F)c1Cl [Crizotinib] (partner 1 µM)
Procedure, shortened: (§1)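 Lung cancer cell lines were seeded in 1536-well plates and dosed by pin tool the next day, with either a single drug or a fixed anchor-drug dose combined with five library-drug doses (not always all listed) spaced in √10 steps. Five days later, one step fixed the cells and stained their nuclei (final 0.05% Triton X-100, 1% formaldehyde, 1 ug/ml Hoechst), and nuclei were counted on 4× images. Relative viability is the nuclei count in treated wells divided by the count in vehicle wells, and each value is the median of duplicate plates.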

[2] = compound: C=CCc1cccc(/C=N/NC(=O)CN2CCN(Cc3ccccc3)CC2)c1O [PAC-1] + CC(=O)c1c(C)c2cnc(Nc3ccc(N4CCNCC4)cn3)nc2n(C2CCCC2)c1=O [Palbociclib] (partner 0.5 µM)
Procedure, shortened: as §1

[3] = compound: C=CCc1cccc(/C=N/NC(=O)CN2CCN(Cc3ccccc3)CC2)c1O [PAC-1] + CCNC(=O)c1noc(-c2cc(C(C)C)c(O)cc2O)c1-c1ccc(CN2CCOCC2)cc1 [Luminespib] (partner 0.01 µM)
Procedure, shortened: as §1

[4] = compound: C=CCc1cccc(/C=N/NC(=O)CN2CCN(Cc3ccccc3)CC2)c1O [PAC-1] + C[C@@H](Oc1cc(-c2cnn(C3CCNCC3)c2)cnc1N)c1c(Cl)ccc(F)c1Cl [Crizotinib] (partner 1 µM)
Procedure, shortened: as §1

[5] = compound: C=CCc1cccc(/C=N/NC(=O)CN2CCN(Cc3ccccc3)CC2)c1O [PAC-1] + Nc1nc2[nH]cc(CCc3ccc(C(=O)N[C@@H](CCC(=O)O)C(=O)O)cc3)c2c(=O)[nH]1 [Pemetrexed] (partner 0.2 µM)
Procedure, shortened: as §1

Cell Line | relative viability ([1]; first compound 0.02 µM) | relative viability ([1]; first compound 0.2 µM) | relative viability ([1]; first compound 0.6325 µM) | relative viability ([1]; first compound 2 µM) | relative viability ([2]; first compound 0.02 µM) | relative viability ([2]; first compound 0.06325 µM) | relative viability ([2]; first compound 0.2 µM) | relative viability ([2]; first compound 2 µM) | relative viability ([3]; first compound 0.02 µM) | relative viability ([3]; first compound 0.06325 µM) | relative viability ([3]; first compound 0.2 µM) | relative viability ([3]; first compound 2 µM) | relative viability ([4]; first compound 0.02 µM) | relative viability ([4]; first compound 0.06325 µM) | relative viability ([4]; first compound 0.2 µM) | relative viability ([4]; first compound 2 µM) | relative viability ([5]; first compound 0.02 µM) | relative viability ([5]; first compound 0.06325 µM) | relative viability ([5]; first compound 0.2 µM) | relative viability ([5]; first compound 2 µM)
HCC-15 | 0.991 | 0.945 | 0.953 | 0.762 | 0.743 | 0.747 | 0.628 | 0.689 | 0.447 | 0.37 | 0.355 | 0.279 | 0.788 | 0.878 | 0.785 | 0.82 | 0.216 | 0.234 | 0.247 | 0.22
NCI-H1755 | 1.01 | 1.07 | 0.958 | 0.843 | 0.473 | 0.444 | 0.453 | 0.468 | 0.482 | 0.306 | 0.502 | 0.563 | 0.938 | 0.867 | 0.847 | 0.805 | 0.442 | 0.43 | 0.448 | 0.441
NCI-H441 | 0.861 | 0.936 | 0.884 | 0.787 | 0.194 | 0.266 | 0.26 | 0.2 | 0.285 | 0.254 | 0.471 | 0.335 | 0.725 | 0.77 | 0.714 | 0.655 | 0.296 | 0.254 | 0.28 | 0.237
HOP-62 | 0.76 | 1.04 | 0.98 | 0.959 | 0.463 | 0.437 | 0.51 | 0.46 | 0.954 | 0.835 | 0.852 | 0.942 | 0.844 | 1.01 | 1.02 | 0.954 | 0.356 | 0.267 | 0.312 | 0.34
UMC-11 | 0.821 | 0.579 | 0.633 | 0.578 | 0.339 | 0.322 | 0.371 | 0.277 | 1.05 | 0.986 | 1.04 | 0.928 | 0.62 | 0.606 | 0.546 | 0.666 | 0.78 | 0.791 | 0.802 | 0.79
BEN | 1.25 | 1.05 | 0.537 | 0.901 | 0.443 | 0.489 | 0.47 | 0.459 | 0.594 | 0.282 | 0.535 | 0.273 | 0.92 | 0.882 | 0.804 | 0.832 | 0.719 | 0.74 | 0.718 | 0.655
ChaGo-K-1 | 1.39 | 1.07 | 1.18 | 1.17 | 0.914 | 0.933 | 0.956 | 0.954 | 0.645 | 0.737 | 0.645 | 0.715 | 1.15 | 1.17 | 1.09 | 1.03 | 0.256 | 0.252 | 0.258 | 0.265
NCI-H520 | 1.37 | 1.08 | 0.79 | 0.795 | 0.21 | 0.256 | 0.179 | 0.268 | 0.269 | 0.248 | 0.252 | 0.216 | 0.772 | 0.746 | 0.735 | 0.698 | 0.723 | 0.686 | 0.639 | 0.58
SK-LU-1 | 1.02 | 0.906 | 0.868 | 0.904 | 0.391 | 0.41 | 0.394 | 0.369 | 0.216 | 0.375 | 0.223 | 0.191 | 0.788 | 0.856 | 0.93 | 0.794 | 0.944 | 1.02 | 0.915 | 0.99
NCI-H2087 | 0.902 | 1.02 | 1.01 | 1.03 | 0.241 | 0.241 | 0.285 | 0.214 | 0.174 | 0.243 | 0.21 | 0.182 | 0.995 | 0.966 | 0.728 | 0.68 | 0.675 | 0.641 | 0.663 | 0.724
COR-L 105 | 0.832 | 0.892 | 0.727 | 0.583 | 0.367 | 0.402 | 0.379 | 0.461 | 0.769 | 0.788 | 0.627 | 0.725 | 0.873 | 0.915 | 0.774 | 0.64 | 0.983 | 1.1 | 1.04 | 1.05
EKVX | 1.18 | 1.29 | 0.882 | 1.01 | 0.389 | 0.385 | 0.308 | 0.388 | 0.917 | 0.855 | 0.815 | 0.837 | 1.19 | 1.22 | 0.893 | 0.866 | 0.356 | 0.407 | 0.355 | 0.395
NCI-H23 | 0.501 | 0.538 | 0.419 | 0.5 | 0.629 | 0.521 | 0.524 | 0.533 | 0.231 | 0.223 | 0.237 | 0.219 | 0.481 | 0.396 | 0.489 | 0.535 | 0.623 | 0.705 | 0.817 | 0.775
NCI-H1792 | 0.886 | 1.7 | 0.855 | 0.977 | 0.692 | 0.627 | 0.64 | 0.627 | 0.355 | 0.484 | 0.47 | 0.416 | 0.988 | 1.04 | 1.03 | 0.909 | 0.712 | 0.894 | 0.829 | 0.957
NCI-H3122 | 0.3 | 0.27 | 0.271 | 0.3 | 0.188 | 0.179 | 0.198 | 0.214 | 0.119 | 0.0845 | 0.0804 | 0.0955 | 0.251 | 0.274 | 0.234 | 0.294 | 0.196 | 0.199 | 0.201 | 0.207
